Like-named read-outs stand apart in the source and are kept apart here.
Assays:
[1] = test system: IFNγ-induced STAT1 phosphorylation (pSTAT1) in B16F10 cells; test: B16F10 Phospho-STAT1 HTRF proximal pharmacodynamic (PD) assay; assay type: cell-based, murine; conditions: for EC50: B16-F10; for Thiochromane x-fold>potency cellular: pSTAT1 EC50 of chromane comparator over thiochromane
Protocol: Example 45: B16F10 (Murine Melanoma Cells) Phospho-STAT1 HTRF Proximal Pharmacodynamic (PD) Assay
B16F10 cells were grown and maintained in high glucose DMEM (Gibco, Catalog #11965-092, Dun Laoghaire Co Dublin) supplemented with 10% fetal bovine serum (Gibco, Catalog #10082-139, Dun Laoghaire Co Dublin). The cells were pelleted and resuspended in high glucose DMEM without phenol red (Gibco, Catalog #11054-020, Dun Laoghaire Co Dublin), supplemented with 10% fetal bovine serum and plated in a 384 well Corning plate (product #3765, Corning, NY) at 11,000 cells per well in a volume of 20 μL. The cells were dosed with the compounds of interest using an Echo Liquid Handler (Beckman Coulter, Brea, CA) at 50 μM top dose with 3-fold dilutions down to 0.002679 μM for a 10-point dose response. The plate was incubated for 3 hours at 37° C. and subsequently treated with recombinant mouse IFNγ (R&D Systems, Catalog #485-MI, Minneapolis, MN; 100 nM final concentration) for 10 minutes at 37° C. to induce STAT1 phosphorylation followed by 3.3 μM staurosporine treatment for 1 hour at 37° C. to terminate phosphorylation. Media was then aspirated and 20 μL of 1× lysis buffer/blocking reagent (Cisbio Phospho-STAT1 kit, part #63ADK026PEH, Bedford, MA) was added. The plate was placed on a plate shaker for 30 minutes at room temperature, sealed, and stored at −80° C. until needed. To thaw, the plate was placed on shaker at room temperature until completely thawed while the antibody master mix was made (1:40 Phospho-STAT1 Eu Cryptate antibody, 1:40 Phospho-STAT1 d2 antibody, with the detection buffer; Cisbio Phospho-STAT1 kit, part #63ADK026PEH, Bedford, MA). The antibody master mix was then dispensed at 4 μL per well into a 384 ProxiPlate Plus (PerkinElmer, part #6008289, Waltham, MA) and 16 μL of lysate was added from the Corning plate to the Proxiplate using a VIAFLO 384 (INTEGRA). The plate was incubated for 3 hours at room temperature and read on an EnVision® (Perkin Elmer) plate reader with laser excitation at 335 nm and emission at 665 nm. Dotmatics Studies (Bishop's Stortford, UK) was utilized to generate all dose-response curves and calculate EC50s and are shown in Table 2.

[2] = target: T1, His tagged full-length PTPN1 protein (Homo sapiens, UniProt P18031); test: Mobility Shift Assay (MSA) for PTPN1 inhibitors; assay type: biochemical; conditions: enzyme 0.5 nM, substrate 2 μM, 10 minutes preincubation at room temperature
T1 construct: His; made in house
T1 sequence (P18031 1-435): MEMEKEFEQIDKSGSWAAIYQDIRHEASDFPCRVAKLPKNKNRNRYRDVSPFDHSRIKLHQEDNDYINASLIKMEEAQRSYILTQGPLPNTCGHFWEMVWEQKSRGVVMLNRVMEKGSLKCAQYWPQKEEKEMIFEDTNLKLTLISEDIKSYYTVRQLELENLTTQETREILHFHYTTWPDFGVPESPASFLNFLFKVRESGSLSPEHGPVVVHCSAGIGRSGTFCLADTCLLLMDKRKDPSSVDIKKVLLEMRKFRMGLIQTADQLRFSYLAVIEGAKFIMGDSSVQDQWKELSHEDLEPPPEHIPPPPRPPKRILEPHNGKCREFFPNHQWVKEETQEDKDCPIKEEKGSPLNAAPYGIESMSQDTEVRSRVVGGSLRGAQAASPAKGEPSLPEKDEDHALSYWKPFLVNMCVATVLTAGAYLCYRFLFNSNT
Protocol: Example 44: Mobility Shift Assay (MSA) Used to Determine Potency of PTPN1 Inhibitors
Compound activity was determined using in house His tagged full-length PTPN1 protein (SEQ ID NO: 3) in an in vitro enzymatic reaction. The enzymatic assay used to determine activity is a mobility shift assay using a LabChip EZ Reader by Caliper Life Sciences. The enzymatic reaction was carried out in assay buffer (50 mM HEPES pH 7.5, 1 mM EGTA, 10 mM EDTA, 0.010% Tween® 20, and 2 mM DTT). The compounds were dispensed on a white 384 well ProxiPlate™ (PerkinElmer Cat #6008289) plate using a Labcyte Echo® liquid handler at varying concentrations (12 point, 1:3 dilution). The enzyme (at 0.5 nM) was incubated with compound for 10 minutes at room temperature. Thereafter, the substrate (phosphorylated insulin receptor probe sequence: ((OG488)-(NH—CH2—CH2—O—CH2—CH2—O—CH2—CO)-T-R-D-I—(PY)-E-T-D-Y—Y—R—K—K—NH2) (SEQ ID NO: 2) was added at 2 μM to the plates and incubated for another 10 minutes at room temperature. Finally, a quench solution (water and 4-bromo-3-(2-oxo-2-propoxyethoxy)-5-(3-{[1-(phenylmethanesulfonyl)piperidin-4-yl]amino}phenyl)thiophene-2-carboxylic acid) was added to the plates, which were then run on the EZ Reader (excitation 488 nm, emission 530 nm) to measure % conversion (the amount of phosphorylated substrate which was de-phosphorylated by PTPN1). […] The % inhibition was then used to calculate the IC50 values.

[3] = target: T2, His tagged PTPN2 (TC45) protein (Homo sapiens, UniProt P17706); test: Mobility Shift Assay (MSA) for PTPN2 inhibitors; assay type: biochemical; conditions: for IC50: enzyme 0.5 nM, substrate 2 μM, 10 minutes preincubation at room temperature; for Thiochromane x-fold>potency biochemical: Table 3, PTPN2 MSA IC50 of chromane comparator over thiochromane
T2 construct: His; made in house
T2 sequence (P17706 1-387 isoform P17706-2): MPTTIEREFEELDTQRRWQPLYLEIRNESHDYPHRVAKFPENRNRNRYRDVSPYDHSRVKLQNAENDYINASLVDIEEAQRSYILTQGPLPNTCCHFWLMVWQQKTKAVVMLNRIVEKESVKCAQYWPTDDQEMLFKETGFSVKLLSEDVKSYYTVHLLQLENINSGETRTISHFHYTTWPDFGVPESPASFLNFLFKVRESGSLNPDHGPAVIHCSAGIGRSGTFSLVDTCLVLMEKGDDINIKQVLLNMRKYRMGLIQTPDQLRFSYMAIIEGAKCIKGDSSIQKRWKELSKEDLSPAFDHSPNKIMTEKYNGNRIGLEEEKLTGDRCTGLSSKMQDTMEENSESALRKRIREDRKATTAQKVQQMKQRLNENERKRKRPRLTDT
Protocol: Example 43: Mobility Shift Assay (MSA) Used to Determine Potency of PTPN2 Inhibitors
Compound activity was determined using in house His tagged PTPN2 (TC45) protein (SEQ ID NO: 1) in an in vitro enzymatic reaction. The enzymatic assay used to determine activity was a mobility shift assay using a LabChip EZ Reader by Caliper Life Sciences. The enzymatic reaction was carried out in assay buffer (50 mM HEPES pH 7.5, 1 mM EGTA, 10 mM EDTA, 0.01% Tween® 20, and 2 mM DTT). The compounds were dispensed on a white 384 well ProxiPlate™ (PerkinElmer Catalog #6008289) plate using the Labcyte Echo at varying concentrations (12 point, 1:3 dilution). The enzyme (at 0.5 nM) was incubated with compound for 10 minutes at room temperature. Thereafter, the substrate (phosphorylated insulin receptor probe sequence: ((OG488)-(NH—CH2—CH2—O—CH2—CH2—O—CH2—CO)-T-R-D-I—(PY)-E-T-D-Y—Y—R—K—K—NH2) (SEQ ID NO: 2) was added at 2 μM to the plates and incubated for another 10 minutes at room temperature. Finally, a quench solution (water and 4-bromo-3-(2-oxo-2-propoxyethoxy)-5-(3-{[1-(phenylmethanesulfonyl)piperidin-4-yl]amino}phenyl)thiophene-2-carboxylic acid) was added to the plates, which were then run on the EZ Reader (excitation 488 nm, emission 530 nm) to measure % conversion (the amount of phosphorylated substrate which was de-phosphorylated by PTPN2). […] The % inhibition was then used to calculate the IC50 values.

[4] = Table 2, 3 hours compound, then mouse IFNγ 100 nM 10 minutes, top dose 50 μM, read-out: B16F10 IFNγ Induced pSTAT1 EC50
[5] = Mus musculus, Table 3, B16F10 cells, IFNγ-induced, thiochromanes (X = S) and chromane comparators (X = O), read-out: pSTAT1 EC50

SMILES	EC50 [1, 4]	IC50 [2]	EC50 [1, 5]	IC50 [3]	Thiochromane x-fold>potency cellular ([1]; Table 3)	Thiochromane x-fold>potency biochemical [3]
CCCN[C@@H]1CSc2cc(O)c(N3CC(=O)NS3(=O)=O)c(F)c2C1 [Compound 107, 5-[(3S)-5-fluoro-7-hydroxy-3-(propylamino)-3,4-dihydro-2H-1-benzothiopyran-6-yl]-1λ^6,2,5-thiadiazolidine-1,1,3-trione]	3960 nM	10 to 100 nM	–	10 to 100 nM	–	–
CCC(C)CCN[C@@H]1CSc2cc(O)c(N3CC(=O)NS3(=O)=O)c(F)c2C1 (stereo partly drawn) [Compound 108, 5-{(3S)-5-fluoro-7-hydroxy-3-[(3-methylpentyl)amino]-3,4-dihydro-2H-1-benzothiopyran-6-yl}-1λ^6,2,5-thiadiazolidine-1,1,3-trione]	1760 nM	< 10 nM	–	< 10 nM	–	–
O=C1CN(c2c(O)cc3c(c2F)C[C@H](NCCC2CCOCC2)CS3)S(=O)(=O)N1 [Compound 109, 5-[(3S)-5-fluoro-7-hydroxy-3-{[2-(oxan-4-yl)ethyl]amino}-3,4-dihydro-2H-1-benzothiopyran-6-yl]-1λ^6,2,5-thiadiazolidine-1,1,3-trione]	6030 nM	10 to 100 nM	6030 nM	< 10 nM	5.3	2.0
CC(C)CN[C@@H]1CSc2cc(O)c(N3CC(=O)NS3(=O)=O)c(F)c2C1 [Compound 113, 5-{(3S)-5-fluoro-7-hydroxy-3-[(2-methylpropyl)amino]-3,4-dihydro-2H-1-benzothiopyran-6-yl}-1λ^6,2,5-thiadiazolidine-1,1,3-trione]	2030 nM	10 to 100 nM	–	10 to 100 nM	–	–
O=C1CN(c2c(O)cc3c(c2F)C[C@H](NCCC2CCOC2)CS3)S(=O)(=O)N1 (stereo partly drawn) [Compound 114, 5-[(3S)-5-fluoro-7-hydroxy-3-{[2-(oxolan-3-yl)ethyl]amino}-3,4-dihydro-2H-1-benzothiopyran-6-yl]-1λ^6,2,5-thiadiazolidine-1,1,3-trione]	1780 nM	10 to 100 nM	1780 nM	< 10 nM	12.7	6.0
CC(C)C(C)CN[C@@H]1CSc2cc(O)c(N3CC(=O)NS3(=O)=O)c(F)c2C1 (stereo partly drawn) [Compound 115, 5-{(3S)-3-[(2,3-dimethylbutyl)amino]-5-fluoro-7-hydroxy-3,4-dihydro-2H-1-benzothiopyran-6-yl}-1λ^6,2,5-thiadiazolidine-1,1,3-trione]	1830 nM	< 10 nM	–	< 10 nM	–	–

Continued, in another order:

EC50 [1, 4]	IC50 [2]	EC50 [1, 5]	SMILES	IC50 [3]	Thiochromane x-fold>potency cellular ([1]; Table 3)	Thiochromane x-fold>potency biochemical [3]
4810 nM	10 to 100 nM	–	O=C1CN(c2c(O)cc3c(c2F)C[C@H](NCCC2(CO)CCCC2)CS3)S(=O)(=O)N1 [Compound 105, 5-[(3S)-5-fluoro-7-hydroxy-3-({2-[1-(hydroxymethyl)cyclopentyl]ethyl}amino)-3,4-dihydro-2H-1-benzothiopyran-6-yl]-1λ^6,2,5-thiadiazolidine-1,1,3-trione]	< 10 nM	–	–
11900 nM	10 to 100 nM	–	CC(C)(CO)CCN[C@@H]1CSc2cc(O)c(N3CC(=O)NS3(=O)=O)c(F)c2C1 [Compound 106, 5-{(3S)-5-fluoro-7-hydroxy-3-[(4-hydroxy-3,3-dimethylbutyl)amino]-3,4-dihydro-2H-1-benzothiopyran-6-yl}-1λ^6,2,5-thiadiazolidine-1,1,3-trione]	< 10 nM	–	–
6990 nM	10 to 100 nM	–	O=C1CN(c2c(O)cc3c(c2F)C[C@H](NCC2CCOCC2)CS3)S(=O)(=O)N1 [Compound 110, 5-[(3S)-5-fluoro-7-hydroxy-3-{[(oxan-4-yl)methyl]amino}-3,4-dihydro-2H-1-benzothiopyran-6-yl]-1λ^6,2,5-thiadiazolidine-1,1,3-trione]	10 to 100 nM	–	–
7980 nM	10 to 100 nM	–	O=C1CN(c2c(O)cc3c(c2F)C[C@H](NCC2CC2)CS3)S(=O)(=O)N1 [Compound 111, 5-{(3S)-3-[(cyclopropylmethyl)amino]-5-fluoro-7-hydroxy-3,4-dihydro-2H-1-benzothiopyran-6-yl}-1λ^6,2,5-thiadiazolidine-1,1,3-trione]	10 to 100 nM	–	–
1210 nM	10 to 100 nM	–	CCCCN[C@@H]1CSc2cc(O)c(N3CC(=O)NS3(=O)=O)c(F)c2C1 [Compound 112, 5-[(3S)-3-(butylamino)-5-fluoro-7-hydroxy-3,4-dihydro-2H-1-benzothiopyran-6-yl]-1λ^6,2,5-thiadiazolidine-1,1,3-trione]	< 10 nM	–	–
